Our source for the IC50 values is patent US5463052A, “Method for producing benzylidene derivatives” (Shionogi & Co., Ltd., priority 1993, dated 1995).

The structures appear in SMILES notation. Some results are limits rather than exact numbers.

Common to all, as to assay type: cell-based
For test [1], the system named is production of IL-1 in THP-1 cells. Briefly: inhibitory activity against the production of IL-1 under LPS stimulation in THP-1 cells. Conditions: Homo sapiens, read-out: L-1 (THP-1) IC50. The text has this:
(§1) These benzylidene derivatives of the formula III can be prepared in a conventional manner, for example, according to the following reaction scheme. [drawing 5] In the reaction scheme above, R is a as defined above and R^3 is hydroxy-protecting group in EP patent application No. 93308369.3 (Publication No. 595546) corresponding to U.S. patent application No. 08/142,146. Thus, hydroxy-protected 3,5-di-tert-butyl-4-hydroxybenzaldehyde 4 is reacted with γ-sultam derivative 2 under a conditions for aldol reaction to obtain an aldol addition compound 5. The compound […], when deprotected and dehydrated in the presence of an acid, gives the objective benzylidene derivative 3' as a mixture of stereoisomers in (E)- and (Z) forms, which is then subjected to resolution, when a given isomer is desired.

In test [2] the test system is production of LTB4 in rat celiac cells. Briefly: inhibitory activity against the production of LTB4 in rat celiac cells (Rat PEC).
Text: as §1

The subject of test [3] is production of PGE2 in rat synovial membrane cells. Briefly: inhibitory activity against the production of PGE2 in rat synovial membrane cells (Rat SVC).
Text: as §1

One may read the IC50 as the concentration needed to halve the response being measured. `CN1CC/C(=C/c2cc(C(C)(C)C)c(O)c(C(C)(C)C)c2)S1(=O)=O` [(Z), 5-(3,5-di-tert-butyl-4-hydroxybenzylidene)-2-methyl-1,2-isothiazolidine-1,1-dioxide]: the IC50 is 29 µM in test [1], 1800 nM in test [2] and under 1 nM in test [3].

For `CN1CC/C(=C\c2cc(C(C)(C)C)c(O)c(C(C)(C)C)c2)S1(=O)=O` [(E), (E)-5-(3,5-di-tert-Butyl-4-hydroxybenzylidene)-2-methyl-1,2-isothiazolidine-1,1-dioxide], the half-inhibitory concentration (IC50) in test [1] was 21 µM; in test [2], 2800 nM; in test [3] it was under 1 nM.
